These results are taken from patent US20250282768A1 (Janssen Pharmaceutica NV, priority 2022, published 2025).

The test system of this test is p-IKKa levels in L363 (NIK translocated multiple myeloma) cells. Briefly: Assay 2: Effect of compounds on p-IKKa levels in L363 (NIK translocated multiple myeloma) cells. It counts as cell-based. The conditions noted are these: Homo sapiens, L-363, 6 h, read-out: Assay 2 IC50 (nM), p-IKKa (Ser 176/180) in BAFF stimulated L363 cells with MG132, 6 h; average if tested more than once. The gist of the method:
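L363 cells incubated overnight ± 250 ng/ml BAFF, then 6 h at 37 °C with compound (0.3% DMSO) ± 10 μM MG132. Lysates assayed for p-IKKa (Ser176/180) by AlphaLISA SureFire. IC50 from sigmoidal fit of % inhibition normalized to BAFF/MG132-stimulated and unstimulated controls.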
As to `CN1CC[C@@](O)(c2cc(-c3cccc(-c4ccnc(Nc5cnn6c5CCCC6)n4)n3)on2)C1=O` [Example 406, (R)-3-Hydroxy-1-methyl-3-(5-(6-(2-((4,5,6,7-tetrahydropyrazolo[1,5-a]pyridin-3-yl)amino)pyrimidin-4-yl)pyridin-2-yl)isoxazol-3-yl)pyrrolidin-2-one], the IC50 was under 50 nM.
To `CN1CC[C@@](O)(c2cc(-c3cccc(-c4ccnc(Nc5cnn(C)c5Cl)n4)n3)on2)C1=O` [Example 407, (R)-3-(5-(6-(2-((5-Chloro-1-methyl-1H-pyrazol-4-yl)amino)pyrimidin-4-yl)pyridin-2-yl)isoxazol-3-yl)-3-hydroxy-1-methylpyrrolidin-2-one] belongs under 50 nM; to `Cc1cc(Nc2nccc(-c3cccc(-c4cc([C@@]5(O)C(=O)N(C)CC5(F)F)on4)n3)n2)ccn1` [Example 408, (R)-4,4-Difluoro-3-hydroxy-1-methyl-3-(3-(6-(2-((2-methylpyridin-4-yl)amino)pyrimidin-4-yl)pyridin-2-yl)isoxazol-5-yl)pyrrolidin-2-one], under 50 nM.
Next, `CN1CC(F)(F)[C@@](O)(c2cc(-c3cccc(-c4ccnc(Nc5cnn(C)c5Cl)n4)n3)no2)C1=O` [Example 409]: under 50 nM; `CCn1ccc(Nc2nccc(-c3cccc(-c4cc([C@]5(O)CCN(C)C5=O)on4)n3)n2)n1` [Example 410, (R)-3-(3-(6-(2-((1-Ethyl-1H-pyrazol-3-yl)amino)pyrimidin-4-yl)pyridin-2-yl)isoxazol-5-yl)-3-hydroxy-1-methylpyrrolidin-2-one]: under 50 nM; `CN1CC[C@@](O)(c2cc(-c3cccc(-c4ccnc(Nc5cc(OC(F)F)n(C)n5)n4)c3)no2)C1=O` [Example 412, (R)-3-(3-(3-(2-((5-(Difluoromethoxy)-1-methyl-1H-pyrazol-3-yl)amino)pyrimidin-4-yl)phenyl)isoxazol-5-yl)-3-hydroxy-1-methylpyrrolidin-2-one]: 50 to 500 nM.
To `CN1CC[C@@](O)(c2cc(-c3cccc(-c4ccnc(Nc5cn(CC(F)F)nc5OC5CC5)n4)c3)no2)C1=O` [Example 413, (R)-3-(3-(3-(2-((3-Cyclopropoxy-1-(2,2-difluoroethyl)-1H-pyrazol-4-yl)amino)pyrimidin-4-yl)phenyl)isoxazol-5-yl)-3-hydroxy-1-methylpyrrolidin-2-one] belongs 50 to 500 nM; to `CN1CC[C@@](O)(c2cc(-c3cccc(-c4ccnc(Nc5cc(N)n(C)n5)n4)c3)no2)C1=O` [Example 414, (R)-3-(3-(3-(2-((5-Amino-1-methyl-1H-pyrazol-3-yl)amino)pyrimidin-4-yl)phenyl)isoxazol-5-yl)-3-hydroxy-1-methylpyrrolidin-2-one], over 500 nM; to `CN1CC[C@@](O)(c2cc(-c3cccc(-c4ccnc(Nc5cn(C)nc5N)n4)c3)no2)C1=O` [Example 415, (R)-3-(3-(3-(2-((3-Amino-1-methyl-1H-pyrazol-4-yl)amino)pyrimidin-4-yl)phenyl)isoxazol-5-yl)-3-hydroxy-1-methylpyrrolidin-2-one], over 500 nM.
Consider `CN1CC[C@@](O)(c2cc(-c3cccc(-c4ccnc(Nc5cc6n(n5)CCNC6)n4)c3)no2)C1=O` [Example 416, (R)-3-Hydroxy-1-methyl-3-(3-(3-(2-((4,5,6,7-tetrahydropyrazolo[1,5-a]pyrazin-2-yl)amino)pyrimidin-4-yl)phenyl)isoxazol-5-yl)pyrrolidin-2-one], for which the IC50 was over 500 nM.
To `CN1CC[C@@](O)(c2cc(-c3cccc(-c4ccnc(N5CCn6nc(N)cc6C5)n4)c3)no2)C1=O` [Example 417, (R)-3-(3-(3-(2-(2-Amino-6,7-dihydropyrazolo[1,5-a]pyrazin-5(4H)-yl)pyrimidin-4-yl)phenyl)isoxazol-5-yl)-3-hydroxy-1-methylpyrrolidin-2-one] belongs over 500 nM; to `CN1CC[C@@](O)(c2cc(-c3cccc(-c4ccnc(Nc5nn(C)c6c5CNC6)n4)c3)no2)C1=O` [Example 418, (R)-3-Hydroxy-1-methyl-3-(3-(3-(2-((1-methyl-1,4,5,6-tetrahydropyrrolo[3,4-c]pyrazol-3-yl)amino)pyrimidin-4-yl)phenyl)isoxazol-5-yl)pyrrolidin-2-one], over 500 nM; to `CN1CC[C@@](O)(c2cc(-c3cccc(-c4ccnc(Nc5cnn6c5CNCC6)n4)c3)no2)C1=O` [Example 419, (R)-3-Hydroxy-1-methyl-3-(3-(3-(2-((4,5,6,7-tetrahydropyrazolo[1,5-a]pyrazin-3-yl)amino)pyrimidin-4-yl)phenyl)isoxazol-5-yl)pyrrolidin-2-one], over 500 nM.
On to `CN1CC[C@@](O)(c2cc(-c3cccc(-c4ccnc(Nc5nn(C)c6ccncc56)n4)c3)no2)C1=O` [Example 420, (R)-3-Hydroxy-1-methyl-3-(3-(3-(2-((1-methyl-1H-pyrazolo[4,3-c]pyridin-3-yl)amino)pyrimidin-4-yl)phenyl)isoxazol-5-yl)pyrrolidin-2-one], for which the IC50 is over 500 nM.
As to `CN1CC[C@@](O)(c2cc(-c3cccc(-c4ccnc(Nc5nn(C)c6ncccc56)n4)c3)no2)C1=O` [Example 421, (R)-3-Hydroxy-1-methyl-3-(3-(3-(2-((1-methyl-1H-pyrazolo[3,4-b]pyridin-3-yl)amino)pyrimidin-4-yl)phenyl)isoxazol-5-yl)pyrrolidin-2-one], the IC50 is over 500 nM.
To `CN1CC[C@@](O)(c2cc(-c3cccc(-c4ccnc(Nc5nn(C)c6nccnc56)n4)c3)no2)C1=O` [Example 422, (R)-3-Hydroxy-1-methyl-3-(3-(3-(2-((1-methyl-1H-pyrazolo[3,4-b]pyrazin-3-yl)amino)pyrimidin-4-yl)phenyl)isoxazol-5-yl)pyrrolidin-2-one] belongs over 500 nM.
Next, `CN1CC[C@@](O)(c2cc(-c3cccc(-c4nc(Nc5cnn(C)c5)ncc4F)c3)no2)C1=O` [Example 423, (R)-3-(3-(3-(5-Fluoro-2-((1-methyl-1H-pyrazol-4-yl)amino)pyrimidin-4-yl)phenyl)isoxazol-5-yl)-3-hydroxy-1-methylpyrrolidin-2-one]: over 500 nM; `CN1CC[C@@](O)(c2cc(-c3cccc(-c4nc(Nc5nn(C)cc5C#N)ncc4F)c3)no2)C1=O` [Example 424, (R)-3-((5-Fluoro-4-(3-(5-(3-hydroxy-1-methyl-2-oxopyrrolidin-3-yl)isoxazol-3-yl)phenyl)pyrimidin-2-yl)amino)-1-methyl-1H-pyrazole-4-carbonitrile]: over 500 nM.
Next, `CN1CC[C@@](O)(c2cc(-c3cccc(-c4nc(Nc5ccn(C)n5)ncc4F)c3)no2)C1=O` [Example 425, (R)-3-(3-(3-(5-Fluoro-2-((1-methyl-1H-pyrazol-3-yl)amino)pyrimidin-4-yl)phenyl)isoxazol-5-yl)-3-hydroxy-1-methylpyrrolidin-2-one]: over 500 nM.
With `CN1CC[C@@](O)(c2cc(-c3cccc(-c4ccnc(Nc5ccn(C)n5)n4)c3F)no2)C1=O` [Example 426, (R)-3-(3-(2-Fluoro-3-(2-((1-methyl-1H-pyrazol-3-yl)amino)pyrimidin-4-yl)phenyl)isoxazol-5-yl)-3-hydroxy-1-methylpyrrolidin-2-one], the IC50 was over 500 nM.
On to `CN1CC[C@@](O)(c2cc(-c3cccc(-c4ccnc(Nc5cnn(C)c5)n4)c3F)no2)C1=O` [Example 427, (R)-3-(3-(2-Fluoro-3-(2-((1-methyl-1H-pyrazol-4-yl)amino)pyrimidin-4-yl)phenyl)isoxazol-5-yl)-3-hydroxy-1-methylpyrrolidin-2-one], for which the IC50 is over 500 nM.
Next, `CN(C)Cc1cc(Nc2nccc(-c3cccc(-c4cc([C@]5(O)CCN(C)C5=O)on4)n3)n2)nn1C` [Example 428, (R)-3-(3-(6-(2-((5-((Dimethylamino)methyl)-1-methyl-1H-pyrazol-3-yl)amino)pyrimidin-4-yl)pyridin-2-yl)isoxazol-5-yl)-3-hydroxy-1-methylpyrrolidin-2-one]: 50 to 500 nM; `CN1CC[C@@](O)(c2cc(-c3cccc(-c4ccnc(Nc5cc6n(n5)CCNC6)n4)n3)no2)C1=O` [Example 430, (R)-3-Hydroxy-1-methyl-3-(3-(6-(2-((4,5,6,7-tetrahydropyrazolo[1,5-a]pyrazin-2-yl)amino)pyrimidin-4-yl)pyridin-2-yl)isoxazol-5-yl)pyrrolidin-2-one]: 50 to 500 nM.
Next, `CN1CC[C@@](O)(c2cc(-c3cccc(-c4ccnc(Nc5cc6n(n5)CCN(CC(F)(F)F)C6)n4)n3)no2)C1=O` [Example 431, (R)-3-Hydroxy-1-methyl-3-(3-(6-(2-((5-(2,2,2-trifluoroethyl)-4,5,6,7-tetrahydropyrazolo[1,5-a]pyrazin-2-yl)amino)pyrimidin-4-yl)pyridin-2-yl)isoxazol-5-yl)pyrrolidin-2-one]: 50 to 500 nM; `CN1CC[C@@](O)(c2cc(-c3cccc(-c4ccnc(Nc5cc6n(n5)CCOC6)n4)n3)no2)C1=O` [Example 432, (R)-3-(3-(6-(2-((6,7-Dihydro-4H-pyrazolo[5,1-c][1,4]oxazin-2-yl)amino)pyrimidin-4-yl)pyridin-2-yl)isoxazol-5-yl)-3-hydroxy-1-methylpyrrolidin-2-one]: under 50 nM; `CN1CC[C@@](O)(c2cc(-c3cccc(-c4ccnc(Nc5cnn6c5CN(CC5CC5)CC6)n4)n3)no2)C1=O` [Example 433, (R)-3-(3-(6-(2-((5-(Cyclopropylmethyl)-4,5,6,7-tetrahydropyrazolo[1,5-a]pyrazin-3-yl)amino)pyrimidin-4-yl)pyridin-2-yl)isoxazol-5-yl)-3-hydroxy-1-methylpyrrolidin-2-one]: under 50 nM.
To `CN1CC[C@@](O)(c2cc(-c3cccc(-c4ccnc(Nc5cc(CN6CCOCC6)n(C)n5)n4)n3)no2)C1=O` [Example 434, (R)-3-Hydroxy-1-methyl-3-(3-(6-(2-((1-methyl-5-(morpholinomethyl)-1H-pyrazol-3-yl)amino)pyrimidin-4-yl)pyridin-2-yl)isoxazol-5-yl)pyrrolidin-2-one] belongs 50 to 500 nM.
